From patent US9532993B2, “Aprepitant L-proline solvates—compositions and cocrystals” (priority 2011, dated 2017)

Tests used:
[1] = for weight loss during the initial desorption cycle: initial desorption scan 50-0.5% RH; for solid form of the product obtained after the GVS analysis (XRPD): XRPD after completion of the GVS isotherm
Description: Gravimetric Vapour Isotherm (GVS) Analysis: Sorption isotherms were obtained using a Hiden Isochema moisture sorption analyser (model IGAsorp), controlled by IGAsorp Systems Software V6.50.48. The sample was maintained at a constant temperature (25° C.) by the instrument controls. The humidity was controlled by mixing streams of dry and wet nitrogen, with a total flow of 250 ml·min^−1. The instrument was verified for relative humidity content by measuring three calibrated Rotronic salt solutions (10-50-80%). The weight change of the sample was monitored as a function of humidity by a microbalance (accuracy +/−0.005 mg). A defined amount of sample was placed in a tared mesh stainless steel basket under ambient conditions. The sample was loaded at 40% RH and 25° C. (typical room conditions). The sample was initially held at 50% RH for ˜80 minutes before the initial desorption cycle was commenced. A moisture sorption isotherm was acquired as outlined in Table 1 (2 scans giving 1 complete cycle). The standard isotherm was collected at a constant temperature (25° C.) and at 10% RH intervals over a 0.5-90% range (80 minutes for each humidity level). Data analysis was undertaken in Microsoft Excel.
The sample was recovered after completion of the isotherm and re-analysed by XRPD.

[2] = cited from earlier work
[3] = marketed nanoparticulate formulation; cited from earlier work
[4] = Class IV indicates low solubility and low permeability API; cited from earlier work

Row | weight loss during the initial desorption cycle ([1]; GVS, 25° C.) [%] | hygroscopicity of the obtained product ([1]; GVS, 25° C., product obtained after initial desorption) | water adsorbed by the obtained product at high relative humidity ([1]; GVS, 25° C., product obtained after initial desorption (converted to H2O cocrystal), high relative humidity) [%] | weight loss over the total desorption-adsorption-desorption cycles ([1]; GVS, 25° C., 0.5-90% RH) [%] | Compound | solid form of the product obtained after the GVS analysis (XRPD) [1] | solubility in acetonitrile ([2]; acetonitrile) | solubility in ethanol ([2]; ethanol) | solubility in isopropyl acetate ([2]; isopropyl acetate) | solubility in water ([2]; water) | mean absolute bioavailability [3] | BCS class [4]
1 | 4.3 | not hygroscopic | 0.5 | – | CCO.C[C@@H](O[C@H]1OCCN(Cc2n[nH]c(=O)[nH]2)[C@H]1c1ccc(F)cc1)c1cc(C(F)(F)F)cc(C(F)(F)F)c1.O=C(O)[C@@H]1CCCN1 | entirely the 1:1:1 aprepitant L-proline H2O cocrystal | – | – | – | – | – | –
2 | 4.4 | – | – | 6.3 | CCCO.C[C@@H](O[C@H]1OCCN(Cc2n[nH]c(=O)[nH]2)[C@H]1c1ccc(F)cc1)c1cc(C(F)(F)F)cc(C(F)(F)F)c1.O=C(O)[C@@H]1CCCN1 | entirely the 1:1:1 aprepitant L-proline H2O cocrystal | – | – | – | – | – | –
3 | – | – | – | – | C[C@@H](O[C@H]1OCCN(Cc2nc(=O)[nH][nH]2)[C@H]1c1ccc(F)cc1)c1cc(C(F)(F)F)cc(C(F)(F)F)c1 [Aprepitant] | – | slightly soluble | sparingly soluble | sparingly soluble | practically insoluble | 60-65% | Class IV
